Data reported in patent US8802597B2, “Herbicidal pyrimidines” (E I du Pont de Nemours and Company, priority 2003, dated 2014).

How the values were obtained:
Experiment in all cases: Test C pre/postemergence
Assay type in all cases: in vivo
Settings in all cases: Preemergence
[1] = test system: Surinam grass (Brachiaria decumbens)
Source text: (§1) Seeds or nutlets of plant species selected from bermudagrass (Cynodon dactylon), Surinam grass (Brachiaria decumbens), cocklebur (Xanthium strumarium), corn (Zea mays), crabgrass (Digitaria sanguinalis), woolly cupgrass (Eriochloa villosa), giant foxtail (Setaria faberii), goosegrass (Eleusine indica), johnsongrass (Sorghum halepense), kochia (Kochia scoparia), lambsquarters (Chenopodium album), morningglory (Ipomoea coccinea), eastern black nightshade (Solanum ptycanthum), yellow nutsedge (Cyperus esculentus), pigweed (Amaranthus retroflexus), common ragweed (Ambrosia elatior), soybean (Glycine max), common (oilseed) sunflower (Helianthus annuus), and velvetleaf (Abutilon theophrasti) were planted and treated preemergence with test chemicals formulated in a non-phytotoxic solvent mixture which included a surfactant.
(§2) At the same time, plants selected from these crop and weed species and also winter barley (Hordeum vulgare), blackgrass (Alopecurus myosuroides), canarygrass (Phalaris minor), chickweed (Stellaria media), downy brome (Bromus tectorum), green foxtail (Setaria viridis), Italian ryegrass (Lolium multiflorum), wheat (Triticum aestivum), wild oat (Avena fatua) and windgrass (Apera spica-venti) were treated with postemergence applications of some of the test chemicals formulated in the same manner. Plants ranged in height from 2 to 18 cm (1- to 4-leaf stage) for postemergence treatments. Plant species in the flooded paddy test consisted of rice (Oryza sativa), umbrella sedge (Cyperus difformis), duck salad (Heteranthera limosa) and barnyardgrass (Echinochloa crus-galli) grown to the 2-leaf stage for testing. Treated plants and controls were maintained in a greenhouse for 12 to 14 days, after which time all species were compared to controls and visually evaluated. Plant response ratings, summarized in Table C, are based on a scale of 0 to 100 where 0 is no effect and 100 is complete control. A dash (-) response means no test result.

[2] = test system: yellow nutsedge (Cyperus esculentus)
Source text: as §1, §2

[3] = test system: crabgrass (Digitaria sanguinalis)
Source text: as §1, §2

[4] = test system: giant foxtail (Setaria faberii)
Source text: as §1, §2

[5] = 31 g ai/ha, scale 0 to 100, 0 no effect, 100 complete control
[6] = 62 g ai/ha, scale 0 to 100, 0 no effect, 100 complete control

| Compound | Plant response rating, Surinam Grass [1, 5] | Plant response rating, Surinam Grass ([1]; 125 g ai/ha, scale 0 to 100) | Plant response rating, Surinam Grass ([1]; 250 g ai/ha, scale 0 to 100) | Plant response rating, Nutsedge, Yellow [2, 5] | Plant response rating, Nutsedge, Yellow [2, 6] | Plant response rating, Nutsedge, Yellow ([2]; 125 g ai/ha, scale 0 to 100) | Plant response rating, Nutsedge, Yellow ([2]; 250 g ai/ha, scale 0 to 100) | Plant response rating, Crabgrass [3, 5] | Plant response rating, Crabgrass [3, 6] | Plant response rating, Crabgrass ([3]; 125 g ai/ha, scale 0 to 100) | Plant response rating, Crabgrass ([3]; 250 g ai/ha, scale 0 to 100) | Plant response rating, Foxtail, Giant [4, 5] | Plant response rating, Foxtail, Giant [4, 6] | Plant response rating, Foxtail, Giant ([4]; 125 g ai/ha, scale 0 to 100) | Plant response rating, Foxtail, Giant ([4]; 250 g ai/ha, scale 0 to 100) | other results |
| --- | --- | --- | --- | --- | --- | --- | --- | --- | --- | --- | --- | --- | --- | --- | --- | --- |
| CCOC(=O)Cc1nc(C2CC2)nc(N)c1Br [Compound 12] | 0 | 0 | 0 | 0 | 0 | 0 | 0 | 0 | 0 | 0 | 0 | 0 | 0 | 0 | 0 | – |
| COC(=O)Cc1nc(C2CC2)nc(N)c1Br [Compound 13] | 0 | 0 | 10 | 0 | 0 | 0 | 0 | 0 | 0 | 0 | 0 | 0 | 0 | 0 | 5 | Plant response rating, Surinam Grass [1, 6]: 0 |
| Nc1nc(C2CC2)nc(C=O)c1Br [Compound 26] | – | – | – | – | – | – | – | – | – | – | – | – | – | – | – | pest or weed control at 62 g/ha ([1]; Urochloa decumbens, pre-emergence, 62 g ai/ha, scale 0 to 100, 0 no effect, 100 complete control, read-out: Plant response rating, Surinam Grass): 0%; pest or weed control at 125 g/ha ([1]; Urochloa decumbens, pre-emergence, 125 g ai/ha, scale 0 to 100, read-out: Plant response rating, Surinam Grass): 0%; pest or weed control at 250 g/ha ([1]; Urochloa decumbens, pre-emergence, 250 g ai/ha, scale 0 to 100, read-out: Plant response rating, Surinam Grass): 10%; pest or weed control at 500 g/ha ([1]; Urochloa decumbens, pre-emergence, 500 g ai/ha, scale 0 to 100, read-out: Plant response rating, Surinam Grass): 10%; pest or weed control at 62 g/ha ([2]; Cyperus, pre-emergence, 62 g ai/ha, scale 0 to 100, 0 no effect, 100 complete control, read-out: Plant response rating, Nutsedge, Yellow): 0%; pest or weed control at 125 g/ha ([2]; Cyperus, pre-emergence, 125 g ai/ha, scale 0 to 100, read-out: Plant response rating, Nutsedge, Yellow): 0%; pest or weed control at 250 g/ha ([2]; Cyperus, pre-emergence, 250 g ai/ha, scale 0 to 100, read-out: Plant response rating, Nutsedge, Yellow): 0%; pest or weed control at 500 g/ha ([2]; Cyperus, pre-emergence, 500 g ai/ha, scale 0 to 100, read-out: Plant response rating, Nutsedge, Yellow): 0%; pest or weed control at 62 g/ha ([4]; Setaria faberi, pre-emergence, 62 g ai/ha, scale 0 to 100, 0 no effect, 100 complete control, read-out: Plant response rating, Foxtail, Giant): 0%; pest or weed control at 125 g/ha ([4]; Setaria faberi, pre-emergence, 125 g ai/ha, scale 0 to 100, read-out: Plant response rating, Foxtail, Giant): 0%; pest or weed control at 250 g/ha ([4]; Setaria faberi, pre-emergence, 250 g ai/ha, scale 0 to 100, read-out: Plant response rating, Foxtail, Giant): 0%; pest or weed control at 500 g/ha ([4]; Setaria faberi, pre-emergence, 500 g ai/ha, scale 0 to 100, read-out: Plant response rating, Foxtail, Giant): 10% |
